Test results as given in patent US7528123B1, “Estrogenic estra-1,3,5(10)-trienes with differential effects on the alpha and beta estrogen receptors, having a linear hydrocarbon chain of from 5-9 carbon atoms in position 11” (N.V. Organon, priority 1998, dated 2009).

Assays:
[1] = molecular target: T1, human estrogen receptor β (Homo sapiens, UniProt Q92731); assay: CHO-ERβ bioassay: luciferase transactivation, estrogenic and anti-estrogenic activity; format: cell-based; conditions: agonist or antagonist in recombinant CHO cells with hERβ, rat oxytocin promoter, luciferase reporter; standard Org 2317 (estradiol)
T1 construct: expressed in transfected cells; host or cells: CHO cells (CHO-ERβ RO LUC), stably co-transfected with rat oxytocin promoter-luciferase reporter
T1 sequence (Q92731 whole entry): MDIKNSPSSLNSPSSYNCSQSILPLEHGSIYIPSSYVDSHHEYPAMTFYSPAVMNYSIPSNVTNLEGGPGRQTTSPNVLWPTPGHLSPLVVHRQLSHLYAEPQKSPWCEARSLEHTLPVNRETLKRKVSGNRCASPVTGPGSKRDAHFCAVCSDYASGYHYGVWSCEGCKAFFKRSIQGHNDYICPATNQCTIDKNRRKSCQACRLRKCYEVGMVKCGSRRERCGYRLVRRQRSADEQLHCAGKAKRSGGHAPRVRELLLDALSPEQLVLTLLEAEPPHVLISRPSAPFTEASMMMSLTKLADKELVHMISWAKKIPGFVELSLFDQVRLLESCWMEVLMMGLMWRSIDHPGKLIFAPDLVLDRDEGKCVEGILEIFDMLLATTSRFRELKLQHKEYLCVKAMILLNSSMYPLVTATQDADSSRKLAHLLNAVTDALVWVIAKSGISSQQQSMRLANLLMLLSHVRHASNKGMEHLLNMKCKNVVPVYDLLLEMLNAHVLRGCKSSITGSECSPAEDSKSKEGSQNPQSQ
Description: (§1) Test medium: Intact recombinant CHO cells stably co-transfected with the rat oxytocin promoter and the luciferase reporter gene and either the human estrogen receptor β or the human estrogen receptor α. Both cell lines have been produced within the Department of Biotechnology and Biochemistry (BBC) (N. V. Organon) and are known under the name CHO-ERRO 2B1-1E9 for CHO-ERα and CHO-ERβ RO LUC for CHO-ERβ. The estrogenic activity of compounds is determined in an in vitro bioassay (CHO-ERα) with recombinant Chinese hamster ovary (CHO) cells stably co-transfected with the human estrogen α (hERα), the rat oxytocin promoter (RO) and the luciferase reporter gene (LUC). The estrogenic activity (potency ratio) of a test compound to promote the transactivation of the enzyme luciferase mediated via the estrogen receptor α is compared with the standard estrogen Org 2317 (estradiol 1,3,5 (10)-estratriene-3,17β-diol). The estrogenic activity (potency ratio) of a test compound to promote the transactivation of the enzyme luciferase mediated via the estrogen receptor β is determined in the same fashion but using recombinant Chinese hamster ovary (CHO) cells stably co-transfected with the human estrogen β (hERβ) (bioassay CHO-ERβ). The anti-estrogenic activity of compounds is determined in the same bioassays (CHO-ERα and CHO-ERβ), but now the anti-ERα and anti-ERβ activity (potency ratio) of a test compound to inhibit the transactivation of the enzyme luciferase mediated via ERα or ERβ by Org 2317 (estradiol 1,3,5 (10)-estratriene-3,17β-diol) is measured.

[2] = molecular target: T2, human estrogen receptor α (Homo sapiens, UniProt P03372); assay: CHO-ERα bioassay: luciferase transactivation, estrogenic and anti-estrogenic activity; format: cell-based; conditions: agonist or antagonist in recombinant CHO cells with hERα, rat oxytocin promoter, luciferase reporter; standard Org 2317 (estradiol)
T2 construct: expressed in transfected cells; host or cells: CHO cells (CHO-ERRO 2B1-1E9), stably co-transfected with rat oxytocin promoter-luciferase reporter
T2 sequence (P03372 1-595): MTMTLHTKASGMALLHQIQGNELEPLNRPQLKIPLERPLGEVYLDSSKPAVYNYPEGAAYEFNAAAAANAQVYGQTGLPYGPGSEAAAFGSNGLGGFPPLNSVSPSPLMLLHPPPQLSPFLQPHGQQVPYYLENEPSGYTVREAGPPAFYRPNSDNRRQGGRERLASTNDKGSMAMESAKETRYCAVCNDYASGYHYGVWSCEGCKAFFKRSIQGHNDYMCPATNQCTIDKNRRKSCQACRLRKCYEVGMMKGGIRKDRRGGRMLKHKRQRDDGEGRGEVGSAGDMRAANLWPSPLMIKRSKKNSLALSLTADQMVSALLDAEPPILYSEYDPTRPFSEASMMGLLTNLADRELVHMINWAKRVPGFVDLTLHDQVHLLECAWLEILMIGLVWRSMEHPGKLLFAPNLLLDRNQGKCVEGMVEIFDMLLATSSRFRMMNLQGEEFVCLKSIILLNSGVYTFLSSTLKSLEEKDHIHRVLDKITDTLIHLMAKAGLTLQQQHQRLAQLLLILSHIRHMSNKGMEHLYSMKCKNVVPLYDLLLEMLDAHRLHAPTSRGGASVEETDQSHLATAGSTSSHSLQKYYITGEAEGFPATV
Description: as §1

Row | Compound | ER-β [1] | ER-α [2]
1 | C=CC[C@H]1C[C@]2(C)[C@@H](O)CC[C@H]2[C@@H]2CCc3cc(O)ccc3[C@@H]12 [Compound 1] | agonist | agonist
2 | C=CCC[C@H]1C[C@]2(C)[C@@H](O)CC[C@H]2[C@@H]2CCc3cc(O)ccc3[C@@H]12 [Compound 2] | agonist | agonist
3 | C=CCCC[C@H]1C[C@]2(C)[C@@H](O)CC[C@H]2[C@@H]2CCc3cc(O)ccc3[C@@H]12 [Compound 3] | antagonist | agonist
4 | C#CCC[C@H]1C[C@]2(C)[C@@H](O)CC[C@H]2[C@@H]2CCc3cc(O)ccc3[C@@H]12 [Compound 4] | agonist | agonist
5 | CC#CCC[C@H]1C[C@]2(C)[C@@H](O)CC[C@H]2[C@@H]2CCc3cc(O)ccc3C12 (stereo partly shown) [Compound 5] | antagonist | agonist
6 | C#CCCC[C@H]1C[C@]2(C)[C@@H](O)CC[C@H]2[C@@H]2CCc3cc(O)ccc3[C@@H]12 [Compound 6] | antagonist | agonist
7 | C[C@]12C[C@H](CC=C3CC3)[C@@H]3c4ccc(O)cc4CC[C@H]3[C@@H]1CC[C@@H]2O [Compound 7] | agonist | agonist
8 | C[C@]12C[C@H](CCC=C3CC3)[C@@H]3c4ccc(O)cc4CC[C@H]3[C@@H]1CC[C@@H]2O [Compound 8] | antagonist | agonist
9 | CCC[C@H]1C[C@]2(C)[C@@H](O)CC[C@H]2[C@@H]2CCc3cc(O)ccc3[C@@H]12 [Compound 9] | agonist | agonist
10 | CCCC[C@H]1C[C@]2(C)[C@@H](O)CC[C@H]2[C@@H]2CCc3cc(O)ccc3[C@@H]12 [Compound 10] | agonist | agonist
11 | CCCCC[C@H]1C[C@]2(C)[C@@H](O)CC[C@H]2[C@@H]2CCc3cc(O)ccc3[C@@H]12 [Compound 11] | antagonist | agonist
